Patent EP2271935B1, “METHOD AND KIT FOR THE EX VIVO EVALUATION OF THE RESPONSE OF A TUMOR TO CONDITIONS TO BE TESTED” (Universität Leipzig, priority 2008, dated 2009)
Where two headings read alike, the source gives them in different places.

System: epithelial cell line KB (DSMZ ACC 136)
Assay: MTT assay of proliferation under varied riboflavin content and light exposure
Format: cell-based, human
Text: To address this question, three media, a) the RPMI 1640 without riboflavin and phenol red that is used in the method according to the invention and was manufactured according to our specifications by Biochrom, as well as two different RPMI 1640 charges purchased from Invitrogen which were each containing 532 nmol/L riboflavin, b) a phenol red-free (Gibco 11835), and c) a conventional RPMI 1640 (Gibco 21875) with 13.284 µmol/L phenol red. All media were supplemented with 2 mmol/L L-alanyl-1-glutamine as stabilized glutamine source (Biochrom K0302 Lot 0755 S) and the same amount of 10% (v/v) of heat-inactivated fetal calf serum (FCS) that was purchased from Invitrogen (Lot 41Q7554K) with a yield of 198 nmol/L riboflavin. […] These medium concentrations define the riboflavin concentrations in controls (see below).
In addition to the influences exerted by the different types of media alone, the riboflavin-dependent impact on the outcome of the docetaxel treatment was investigated. For this purpose 100 µl/well of docetaxel dilutions containing threefold the concentration indicated were added into the wells of microwell plates. The following seven docetaxel concentrations were tested: 19.38, 38.75, 77.5, 155, 310, 620, and 1,240 pmol/L.
To examine photoactivation-dependent riboflavin-mediated effects disturbing the outcome of ex-vivo chemoresponse-evaluation by conventional cell culture medium, and in particular in the absence of flavin-protecting experimental conditions, varying amounts of riboflavin were added. A stock solution of 200 µM (-)-riboflavin (CAS 83-68-5, Sigma R9504, FW=376.37 g/mol, purity >99%, cell culture tested) in phosphate buffered saline was diluted to adjust in each case the highest final concentration in culture (this means: after completion of the assay by addition of the other two components to the final assay volume of 300 µL) to exactly 10 µmol/L. Serial log10-dilutions were made from this concentration in each corresponding medium. These gave final concentrations in cell culture of 10.000, 1.018, 0.12, and 0.03 µmol/L in the case of medium a) (the medium according to the method of the invention), and concentrations of 10.000, 1.449, 0.594, and 0.508 µmol/L using media b) and c).
In general, each combination of riboflavin and docetaxel were tested in duplicate, and controls without additional riboflavin in quadruplicate for each experimental setting in the same 96-well plate. The experimental conditions were as follows: For each of the used media, two different plates were prepared simultaneously and either handled completely under flavin-protecting conditions (illumination only by sodium discharge lamps with an emission wavelength of 589 nm [i]), or in the same bench (Thermo MSC 12) with the installed light inside their working chamber switched on. The dilution of docetaxel and those of riboflavin in the particular medium were prepared for all four plates of each medium type prior to the other working steps under flavin-protecting conditions. Thus the administrations of these dilutions took about 20 min either under flavin-protecting conditions or illuminated conditions. After completed preparation of the plates that thereafter contained 200 µL of both diluted compounds, the plates were incubated 2 h in the incubator to allow for adjustment of the appropriate pH.
In between the stock culture of KB was harvested by trypsination of a 3-days stock culture (exponential growth phase). Stock cultures of KB cells always were grown without any antibiotic or antimycotic in phenol red- and riboflavin-free RPMI 1640 supplemented with 10% (v/v) FCS and were adapted to this medium for more than five passages. They were always handled at room temperature or warmer and were never exposed to light other than the light of a sodium discharge lamp with an emission wavelength of 589 nm for at least five passages. […]

CC(=O)O[C@@]12CO[C@@H]1C[C@H](O)[C@@]1(C)C(=O)[C@H](O)C3=C(C)[C@@H](OC(=O)[C@H](O)[C@@H](NC(=O)OC(C)(C)C)c4ccccc4)C[C@@](O)([C@@H](OC(=O)c4ccccc4)[C@H]21)C3(C)C [docetaxel]
IC50 (Homo sapiens, Epithelial cell, 0.5 h, Plate No. 11; Riboflavin 499 nmol/L; medium c), bench lighting <30 min, read-out: IC50 for docetaxel normalized to medium control of medium with same riboflavin content): 100 pM | IC50 (Homo sapiens, Epithelial cell, 0.5 h, Plate No. 11; Riboflavin 508 nmol/L; medium c) conventional RPMI 1640 with phenol red, bench lighting <30 min, read-out: IC50 for docetaxel with reference to control with same riboflavin content): 284 pM | IC50 (Homo sapiens, Epithelial cell, 0.5 h, Plate No. 11; Riboflavin 508 nmol/L; medium c), bench lighting <30 min, read-out: IC50 for docetaxel normalized to medium control of medium with same riboflavin content): 126 pM | IC50 (Homo sapiens, Epithelial cell, 0.5 h, Plate No. 11; Riboflavin 594 nmol/L; medium c) conventional RPMI 1640 with phenol red, bench lighting <30 min, read-out: IC50 for docetaxel with reference to control with same riboflavin content): 233 pM | IC50 (Homo sapiens, Epithelial cell, 0.5 h, Plate No. 11; Riboflavin 594 nmol/L; medium c), bench lighting <30 min, read-out: IC50 for docetaxel normalized to medium control of medium with same riboflavin content): 103 pM | IC50 (Homo sapiens, Epithelial cell, 0.5 h, Plate No. 11; Riboflavin 1449 nmol/L; medium c) conventional RPMI 1640 with phenol red, bench lighting <30 min, read-out: IC50 for docetaxel with reference to control with same riboflavin content): 274 pM | IC50 (Homo sapiens, Epithelial cell, 0.5 h, Plate No. 11; Riboflavin 1449 nmol/L; medium c), bench lighting <30 min, read-out: IC50 for docetaxel normalized to medium control of medium with same riboflavin content): 122 pM | IC50 (Homo sapiens, Epithelial cell, 0.5 h, Plate No. 11; Riboflavin 10000 nmol/L; medium c) conventional RPMI 1640 with phenol red, bench lighting <30 min, read-out: IC50 for docetaxel with reference to control with same riboflavin content): 247 pM | IC50 (Homo sapiens, Epithelial cell, 0.5 h, Plate No. 11; Riboflavin 10000 nmol/L; medium c), bench lighting <30 min, read-out: IC50 for docetaxel normalized to medium control of medium with same riboflavin content): 110 pM | IC50 (Homo sapiens, Epithelial cell, 0.5 h, Plate No. 12; Riboflavin 499 nmol/L; medium c) conventional RPMI 1640 with phenol red, bench lighting <30 min, daylight 30 min, read-out: IC50 for docetaxel with reference to control with same riboflavin content): 339 pM | IC50 (Homo sapiens, Epithelial cell, 0.5 h, Plate No. 12; Riboflavin 499 nmol/L; medium c), bench lighting <30 min, daylight 30 min, read-out: IC50 for docetaxel normalized to medium control of medium with same riboflavin content): 100 pM | IC50 (Homo sapiens, Epithelial cell, 0.5 h, Plate No. 12; Riboflavin 508 nmol/L; medium c) conventional RPMI 1640 with phenol red, bench lighting <30 min, daylight 30 min, read-out: IC50 for docetaxel with reference to control with same riboflavin content): 239 pM | IC50 (Homo sapiens, Epithelial cell, 0.5 h, Plate No. 12; Riboflavin 508 nmol/L; medium c), bench lighting <30 min, daylight 30 min, read-out: IC50 for docetaxel normalized to medium control of medium with same riboflavin content): 70.5 pM | IC50 (Homo sapiens, Epithelial cell, 0.5 h, Plate No. 12; Riboflavin 594 nmol/L; medium c) conventional RPMI 1640 with phenol red, bench lighting <30 min, daylight 30 min, read-out: IC50 for docetaxel with reference to control with same riboflavin content): 200 pM | IC50 (Homo sapiens, Epithelial cell, 0.5 h, Plate No. 12; Riboflavin 594 nmol/L; medium c), bench lighting <30 min, daylight 30 min, read-out: IC50 for docetaxel normalized to medium control of medium with same riboflavin content): 59.1 pM | IC50 (Homo sapiens, Epithelial cell, 0.5 h, Plate No. 12; Riboflavin 1449 nmol/L; medium c) conventional RPMI 1640 with phenol red, bench lighting <30 min, daylight 30 min, read-out: IC50 for docetaxel with reference to control with same riboflavin content): 153 pM | IC50 (Homo sapiens, Epithelial cell, 0.5 h, Plate No. 12; Riboflavin 1449 nmol/L; medium c), bench lighting <30 min, daylight 30 min, read-out: IC50 for docetaxel normalized to medium control of medium with same riboflavin content): 45 pM | IC50 (Homo sapiens, Epithelial cell, Plate No. 01; Riboflavin 20 nmol/L; medium a) RPMI 1640 without riboflavin and phenol red, flavin-protecting conditions, read-out: IC50 for docetaxel with reference to control with same riboflavin content): 209 pM | IC50 (Homo sapiens, Epithelial cell, Plate No. 01; Riboflavin 20 nmol/L; medium a), flavin-protecting conditions, read-out: IC50 for docetaxel normalized to medium control of medium with same riboflavin content): 100 pM | IC50 (Homo sapiens, Epithelial cell, Plate No. 01; Riboflavin 30 nmol/L; medium a) RPMI 1640 without riboflavin and phenol red, flavin-protecting conditions, read-out: IC50 for docetaxel with reference to control with same riboflavin content): 206 pM | IC50 (Homo sapiens, Epithelial cell, Plate No. 01; Riboflavin 30 nmol/L; medium a), flavin-protecting conditions, read-out: IC50 for docetaxel normalized to medium control of medium with same riboflavin content): 98.6 pM | IC50 (Homo sapiens, Epithelial cell, Plate No. 01; Riboflavin 120 nmol/L; medium a) RPMI 1640 without riboflavin and phenol red, flavin-protecting conditions, read-out: IC50 for docetaxel with reference to control with same riboflavin content): 230 pM | IC50 (Homo sapiens, Epithelial cell, Plate No. 01; Riboflavin 120 nmol/L; medium a), flavin-protecting conditions, read-out: IC50 for docetaxel normalized to medium control of medium with same riboflavin content): 110 pM | IC50 (Homo sapiens, Epithelial cell, Plate No. 01; Riboflavin 1018 nmol/L; medium a) RPMI 1640 without riboflavin and phenol red, flavin-protecting conditions, read-out: IC50 for docetaxel with reference to control with same riboflavin content): 222 pM | IC50 (Homo sapiens, Epithelial cell, Plate No. 01; Riboflavin 1018 nmol/L; medium a), flavin-protecting conditions, read-out: IC50 for docetaxel normalized to medium control of medium with same riboflavin content): 106 pM | IC50 (Homo sapiens, Epithelial cell, Plate No. 01; Riboflavin 10000 nmol/L; medium a) RPMI 1640 without riboflavin and phenol red, flavin-protecting conditions, read-out: IC50 for docetaxel with reference to control with same riboflavin content): 257 pM
